Experimental data: ChEMBL document CHEMBL5291721, “A preclinical secondary pharmacology resource illuminates target-adverse drug reaction associations of marketed drugs” (Nat Commun, 2023)

Key:
[1] = target: T1, Muscarinic acetylcholine receptor M4 (Homo sapiens, UniProt P08173)
T1 sequence (P08173 whole entry): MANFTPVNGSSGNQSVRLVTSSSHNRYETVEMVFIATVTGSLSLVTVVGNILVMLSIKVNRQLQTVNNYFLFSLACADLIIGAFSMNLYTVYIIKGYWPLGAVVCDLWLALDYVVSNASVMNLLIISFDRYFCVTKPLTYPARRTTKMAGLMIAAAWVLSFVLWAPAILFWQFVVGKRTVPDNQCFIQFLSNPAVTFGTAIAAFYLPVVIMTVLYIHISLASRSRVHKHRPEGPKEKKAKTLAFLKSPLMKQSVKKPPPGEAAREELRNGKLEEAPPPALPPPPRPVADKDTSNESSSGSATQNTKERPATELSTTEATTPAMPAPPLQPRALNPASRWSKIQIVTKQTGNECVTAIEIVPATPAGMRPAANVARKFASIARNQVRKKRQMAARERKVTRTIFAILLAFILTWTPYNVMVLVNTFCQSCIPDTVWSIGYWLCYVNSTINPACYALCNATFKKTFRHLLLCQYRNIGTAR

[2] = target: 5-hydroxytryptamine receptor 5A (Homo sapiens, UniProt P47898)
Chain of 5-hydroxytryptamine receptor 5A (P47898 whole entry): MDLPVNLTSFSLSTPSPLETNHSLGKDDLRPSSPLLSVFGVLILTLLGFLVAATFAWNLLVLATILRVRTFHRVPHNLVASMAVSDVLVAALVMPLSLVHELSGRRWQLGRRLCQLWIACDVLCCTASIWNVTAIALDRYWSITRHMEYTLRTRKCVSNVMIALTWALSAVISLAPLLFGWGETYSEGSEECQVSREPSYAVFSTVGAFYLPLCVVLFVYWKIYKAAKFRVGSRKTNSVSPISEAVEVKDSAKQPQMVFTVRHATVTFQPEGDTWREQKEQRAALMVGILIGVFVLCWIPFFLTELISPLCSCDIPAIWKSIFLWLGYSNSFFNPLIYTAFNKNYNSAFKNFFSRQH

[3] = target: Rod cGMP-specific 3',5'-cyclic phosphodiesterase subunit alpha (Homo sapiens, UniProt P16499); assay type: functional
Chain of Rod cGMP-specific 3',5'-cyclic phosphodiesterase subunit alpha (P16499 whole entry): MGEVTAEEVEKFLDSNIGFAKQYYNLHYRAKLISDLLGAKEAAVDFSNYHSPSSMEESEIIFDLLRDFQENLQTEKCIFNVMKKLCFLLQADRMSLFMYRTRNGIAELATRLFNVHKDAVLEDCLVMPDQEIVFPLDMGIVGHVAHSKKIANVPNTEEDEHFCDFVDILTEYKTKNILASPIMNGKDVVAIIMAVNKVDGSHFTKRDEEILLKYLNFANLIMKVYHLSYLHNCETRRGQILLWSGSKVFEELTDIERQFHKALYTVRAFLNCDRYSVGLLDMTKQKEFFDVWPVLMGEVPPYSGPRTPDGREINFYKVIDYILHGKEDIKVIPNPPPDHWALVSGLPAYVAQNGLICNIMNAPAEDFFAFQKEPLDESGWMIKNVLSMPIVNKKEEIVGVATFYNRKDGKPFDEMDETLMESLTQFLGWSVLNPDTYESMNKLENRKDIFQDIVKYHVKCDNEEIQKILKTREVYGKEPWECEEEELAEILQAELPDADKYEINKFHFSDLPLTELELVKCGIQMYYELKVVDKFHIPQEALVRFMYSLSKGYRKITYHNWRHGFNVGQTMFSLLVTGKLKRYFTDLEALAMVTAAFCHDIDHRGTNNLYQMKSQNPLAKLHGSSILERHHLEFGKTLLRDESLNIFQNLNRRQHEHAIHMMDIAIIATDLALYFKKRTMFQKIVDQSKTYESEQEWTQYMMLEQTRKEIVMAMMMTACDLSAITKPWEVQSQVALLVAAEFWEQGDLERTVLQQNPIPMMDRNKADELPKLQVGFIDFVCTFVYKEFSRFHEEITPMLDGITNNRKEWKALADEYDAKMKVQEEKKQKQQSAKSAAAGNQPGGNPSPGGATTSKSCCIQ

[4] = target: T2, 5-hydroxytryptamine receptor 1A (Homo sapiens, UniProt P08908)
T2 sequence (P08908 whole entry): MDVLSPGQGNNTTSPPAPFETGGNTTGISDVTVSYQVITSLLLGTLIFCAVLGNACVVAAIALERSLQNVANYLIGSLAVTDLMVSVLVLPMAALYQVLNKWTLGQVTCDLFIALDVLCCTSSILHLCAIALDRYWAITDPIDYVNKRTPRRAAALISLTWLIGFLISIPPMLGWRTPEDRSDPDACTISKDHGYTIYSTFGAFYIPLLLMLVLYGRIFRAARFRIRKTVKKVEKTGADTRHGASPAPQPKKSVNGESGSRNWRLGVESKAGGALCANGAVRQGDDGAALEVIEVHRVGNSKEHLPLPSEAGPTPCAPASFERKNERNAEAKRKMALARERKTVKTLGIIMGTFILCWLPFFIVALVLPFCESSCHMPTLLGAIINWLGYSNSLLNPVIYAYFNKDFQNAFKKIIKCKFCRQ

[5] = target: T3, Retinoic acid receptor alpha (Homo sapiens, UniProt P10276); assay type: functional, cell-based
T3 sequence (P10276 whole entry): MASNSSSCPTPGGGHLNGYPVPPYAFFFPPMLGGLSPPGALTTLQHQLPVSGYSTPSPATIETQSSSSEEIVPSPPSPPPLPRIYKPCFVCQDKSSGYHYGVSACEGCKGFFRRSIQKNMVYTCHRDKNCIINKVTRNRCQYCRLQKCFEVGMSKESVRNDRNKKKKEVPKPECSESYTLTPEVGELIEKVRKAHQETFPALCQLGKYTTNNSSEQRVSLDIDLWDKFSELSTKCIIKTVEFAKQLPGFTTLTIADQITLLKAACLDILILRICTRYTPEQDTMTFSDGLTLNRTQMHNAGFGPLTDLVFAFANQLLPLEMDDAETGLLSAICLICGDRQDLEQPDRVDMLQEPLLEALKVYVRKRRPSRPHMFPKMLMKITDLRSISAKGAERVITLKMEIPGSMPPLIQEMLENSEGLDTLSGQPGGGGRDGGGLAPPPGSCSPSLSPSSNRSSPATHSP

[6] = target: T4, Retinoic acid receptor gamma (Homo sapiens, UniProt P13631); assay type: functional, cell-based
T4 sequence (P13631 whole entry): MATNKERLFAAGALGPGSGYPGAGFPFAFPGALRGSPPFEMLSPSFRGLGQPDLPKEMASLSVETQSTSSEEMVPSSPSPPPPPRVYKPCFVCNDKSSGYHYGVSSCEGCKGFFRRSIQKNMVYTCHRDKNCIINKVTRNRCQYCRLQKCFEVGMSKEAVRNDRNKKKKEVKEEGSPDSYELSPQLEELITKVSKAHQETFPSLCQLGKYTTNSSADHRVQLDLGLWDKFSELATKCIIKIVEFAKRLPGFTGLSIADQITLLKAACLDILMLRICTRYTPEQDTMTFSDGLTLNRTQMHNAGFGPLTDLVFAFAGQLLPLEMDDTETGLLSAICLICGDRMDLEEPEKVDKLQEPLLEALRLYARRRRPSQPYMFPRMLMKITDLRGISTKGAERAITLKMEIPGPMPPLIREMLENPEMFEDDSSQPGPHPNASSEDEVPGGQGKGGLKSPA

[7] = target: T5, Oxysterols receptor LXR-alpha (Homo sapiens, UniProt Q13133); assay type: functional
T5 sequence (Q13133 whole entry): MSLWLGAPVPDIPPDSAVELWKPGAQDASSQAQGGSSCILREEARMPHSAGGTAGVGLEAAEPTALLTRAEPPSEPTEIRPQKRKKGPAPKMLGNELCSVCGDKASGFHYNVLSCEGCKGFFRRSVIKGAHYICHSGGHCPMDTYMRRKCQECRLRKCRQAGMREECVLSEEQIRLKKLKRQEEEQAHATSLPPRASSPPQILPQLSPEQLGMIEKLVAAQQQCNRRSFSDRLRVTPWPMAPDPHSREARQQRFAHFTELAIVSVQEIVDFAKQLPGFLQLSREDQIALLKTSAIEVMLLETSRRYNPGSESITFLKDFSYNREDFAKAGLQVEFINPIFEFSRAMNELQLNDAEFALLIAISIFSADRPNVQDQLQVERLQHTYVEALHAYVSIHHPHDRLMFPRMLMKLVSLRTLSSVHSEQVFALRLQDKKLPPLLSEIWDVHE

[8] = target: T6, Oxysterols receptor LXR-beta (Homo sapiens, UniProt P55055); assay type: functional
T6 sequence (P55055 whole entry): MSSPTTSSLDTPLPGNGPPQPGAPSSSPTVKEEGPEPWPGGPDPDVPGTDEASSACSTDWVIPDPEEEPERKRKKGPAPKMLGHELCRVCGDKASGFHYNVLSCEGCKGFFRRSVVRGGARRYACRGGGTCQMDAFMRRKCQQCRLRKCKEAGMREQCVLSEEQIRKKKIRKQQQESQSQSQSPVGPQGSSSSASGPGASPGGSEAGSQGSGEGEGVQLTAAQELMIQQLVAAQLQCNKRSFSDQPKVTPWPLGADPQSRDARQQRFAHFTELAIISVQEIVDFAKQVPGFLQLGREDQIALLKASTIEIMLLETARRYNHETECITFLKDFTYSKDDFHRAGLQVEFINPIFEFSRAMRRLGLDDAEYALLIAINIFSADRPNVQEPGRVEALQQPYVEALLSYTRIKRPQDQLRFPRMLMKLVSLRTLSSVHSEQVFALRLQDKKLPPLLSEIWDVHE
Note: assay procedure not described here.

CCOC(=O)[C@H](CCc1ccccc1)N[C@@H](C)C(=O)N1Cc2ccccc2C[C@H]1C(=O)O
AC50 [1]: > 10 µM | AC50 [2]: > 10 µM | AC50 [3]: > 10 µM

CC(=O)Oc1ccccc1C(=O)O [ASPIRIN]
AC50 [4]: > 30 µM

CC(C)/N=c1\cc2n(-c3ccc(Cl)cc3)c3ccccc3nc-2cc1Nc1ccc(Cl)cc1 [CLOFAZIMINE]
AC50 [5]: > 30 µM | AC50 [6]: > 30 µM | AC50 [7]: > 30 µM | AC50 [8]: > 30 µM

NCC1(CC(=O)O)CCCCC1 [GABAPENTIN]
AC50 [4]: > 30 µM

OCCOCCN1CCN(C(c2ccccc2)c2ccc(Cl)cc2)CC1 (stereo not given) [HYDROXYZINE]
AC50 [2]: 0.28 µM
